# Reference: PubChem BioAssay (NCI)
#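 Dose response: 5 concentrations. Exposure: 48 h. Format: 96-well plates. Endpoint: linear interpolation; highest concentration if not reached. Here, GI50 denotes the concentration required for 50% inhibition of growth. TGI: total growth inhibition.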
# Tests used:
# Test in all cases: inhibition of tumour cell growth, NCI panel, 48 h
# 786-0 renal = system: 786-0 renal
# A498 renal = system: A498 renal
# A549 NSCLC = system: A549 NSCLC
# ACHN renal = system: ACHN renal
# BT-549 breast = system: BT-549 breast
# CAKI-1 renal = system: CAKI-1 renal
# CCRF-CEM leukemia = system: CCRF-CEM leukemia
# COLO 205 colon = system: COLO 205 colon
# DU-145 prostate = system: DU-145 prostate
# EKVX NSCLC = system: EKVX NSCLC
# HCC-2998 colon = system: HCC-2998 colon
# HCT-116 colon = system: HCT-116 colon
# HCT-15 colon = system: HCT-15 colon
# HL-60(TB) leukemia = system: HL-60(TB) leukemia
# HOP-62 NSCLC = system: HOP-62 NSCLC
# HS 578T breast = system: HS 578T breast
# HT29 colon = system: HT29 colon
# IGROV1 ovarian = system: IGROV1 ovarian
# K-562 leukemia = system: K-562 leukemia
# KM12 colon = system: KM12 colon
# LOX IMVI melanoma = system: LOX IMVI melanoma
# M14 melanoma = system: M14 melanoma
# MALME-3M melanoma = system: MALME-3M melanoma
# MCF7 breast = system: MCF7 breast
# MDA-MB-231 breast = system: MDA-MB-231 breast
# MDA-MB-435 = system: MDA-MB-435
# MOLT-4 leukemia = system: MOLT-4 leukemia
# NCI-H226 lung = system: NCI-H226 lung
# NCI-H23 lung = system: NCI-H23 lung
# NCI-H460 lung = system: NCI-H460 lung
# NCI-H522 lung = system: NCI-H522 lung
# NCI/ADR-RES ovarian = system: NCI/ADR-RES ovarian
# OVCAR-3 ovarian = system: OVCAR-3 ovarian
# OVCAR-4 ovarian = system: OVCAR-4 ovarian
# OVCAR-5 ovarian = system: OVCAR-5 ovarian
# OVCAR-8 ovarian = system: OVCAR-8 ovarian
# PC-3 prostate = system: PC-3 prostate
# RPMI-8226 leukemia = system: RPMI-8226 leukemia
# SF-268 CNS = system: SF-268 CNS
# SF-295 CNS = system: SF-295 CNS
# SF-539 CNS = system: SF-539 CNS
# SK-MEL-2 melanoma = system: SK-MEL-2 melanoma
# SK-MEL-28 melanoma = system: SK-MEL-28 melanoma
# SK-MEL-5 melanoma = system: SK-MEL-5 melanoma
# SK-OV-3 ovarian = system: SK-OV-3 ovarian
# SN12C renal = system: SN12C renal
# SNB-19 CNS = system: SNB-19 CNS
# SNB-75 CNS = system: SNB-75 CNS
# SR leukemia = system: SR leukemia
# SW-620 colon = system: SW-620 colon
# T-47D breast = system: T-47D breast
# TK-10 renal = system: TK-10 renal
# U251 CNS = system: U251 CNS
# UACC-257 melanoma = system: UACC-257 melanoma
# UACC-62 melanoma = system: UACC-62 melanoma
# UO-31 renal = system: UO-31 renal
# RXF 393 renal = system: RXF 393 renal
structure (smiles),measurement,setting,value
COc1cc(OC)cc(C2C3=C(COC3=O)Nc3cc(OC)ccc32)c1 (stereo not drawn),GI50,786-0 renal,20.3 nM
same,TGI,786-0 renal,30.9 µM
same,GI50,A498 renal,< 10 nM
same,TGI,A498 renal,< 10.6 nM
same,GI50,A549 NSCLC,< 10 nM
same,TGI,A549 NSCLC,27.7 µM
same,GI50,ACHN renal,< 10 nM
same,TGI,ACHN renal,33.9 µM
same,GI50,BT-549 breast,13.8 nM
same,TGI,BT-549 breast,> 100 µM
same,GI50,CAKI-1 renal,< 10 nM
same,TGI,CAKI-1 renal,> 100 µM
same,GI50,CCRF-CEM leukemia,< 10 nM
same,TGI,CCRF-CEM leukemia,> 100 µM
same,GI50,COLO 205 colon,< 10 nM
same,TGI,COLO 205 colon,< 10 nM
same,GI50,DU-145 prostate,< 10 nM
same,TGI,DU-145 prostate,48.6 nM
same,GI50,EKVX NSCLC,< 10 nM
same,TGI,EKVX NSCLC,> 100 µM
same,GI50,HCC-2998 colon,< 10 nM
same,GI50,HCT-116 colon,< 10 nM
same,TGI,HCT-116 colon,413 nM
same,GI50,HCT-15 colon,< 10 nM
same,TGI,HCT-15 colon,> 42.6 µM
same,GI50,HL-60(TB) leukemia,< 10 nM
same,TGI,HL-60(TB) leukemia,< 18.6 nM
same,GI50,HOP-62 NSCLC,< 10 nM
same,TGI,HOP-62 NSCLC,21.7 µM
same,GI50,HS 578T breast,< 10 nM
same,TGI,HS 578T breast,> 64.3 µM
same,GI50,HT29 colon,< 10 nM
same,TGI,HT29 colon,> 36.6 µM
same,GI50,IGROV1 ovarian,< 10 nM
same,TGI,IGROV1 ovarian,> 94.5 µM
same,GI50,K-562 leukemia,< 10 nM
same,TGI,K-562 leukemia,13.4 µM
same,GI50,KM12 colon,< 10 nM
same,TGI,KM12 colon,< 10.6 nM
same,GI50,LOX IMVI melanoma,< 10 nM
same,TGI,LOX IMVI melanoma,> 44.1 µM
same,GI50,M14 melanoma,< 0.01 µM
same,TGI,M14 melanoma,11.1 nM
same,GI50,MALME-3M melanoma,13.5 µM
same,TGI,MALME-3M melanoma,> 100 µM
same,GI50,MCF7 breast,< 10 nM
same,TGI,MCF7 breast,19.9 µM
same,GI50,MDA-MB-231 breast,< 12.8 nM
same,GI50,MDA-MB-435,< 10 nM
same,TGI,MDA-MB-435,< 10 nM
same,GI50,MOLT-4 leukemia,< 10 nM
same,GI50,NCI-H226 lung,< 10 nM
same,TGI,NCI-H226 lung,20.7 nM
same,GI50,NCI-H23 lung,< 10 nM
same,TGI,NCI-H23 lung,> 43.7 µM
same,GI50,NCI-H460 lung,< 10 nM
same,TGI,NCI-H460 lung,495 nM
same,GI50,NCI-H522 lung,< 10 nM
same,TGI,NCI-H522 lung,836 nM
same,GI50,NCI/ADR-RES ovarian,< 10 nM
same,GI50,OVCAR-3 ovarian,< 10 nM
same,TGI,OVCAR-3 ovarian,< 10 nM
same,GI50,OVCAR-4 ovarian,< 10 nM
same,TGI,OVCAR-4 ovarian,37.6 µM
same,GI50,OVCAR-5 ovarian,< 20.1 nM
same,TGI,OVCAR-5 ovarian,> 100 µM
same,GI50,OVCAR-8 ovarian,< 14.3 nM
same,TGI,OVCAR-8 ovarian,> 37.5 µM
same,GI50,PC-3 prostate,< 10 nM
same,TGI,PC-3 prostate,> 42.3 µM
same,GI50,RPMI-8226 leukemia,< 10 nM
same,TGI,RPMI-8226 leukemia,> 43.9 µM
same,GI50,SF-268 CNS,< 10.6 nM
same,TGI,SF-268 CNS,> 61.8 µM
same,GI50,SF-295 CNS,< 10 nM
same,TGI,SF-295 CNS,28.2 µM
same,GI50,SF-539 CNS,< 10 nM
same,TGI,SF-539 CNS,15.7 µM
same,GI50,SK-MEL-2 melanoma,335 nM
same,TGI,SK-MEL-2 melanoma,> 100 µM
same,GI50,SK-MEL-28 melanoma,< 0.01 µM
same,TGI,SK-MEL-28 melanoma,> 94.2 µM
same,GI50,SK-MEL-5 melanoma,< 10 nM
same,TGI,SK-MEL-5 melanoma,17.8 nM
same,GI50,SK-OV-3 ovarian,< 10 nM
same,TGI,SK-OV-3 ovarian,< 10 nM
same,GI50,SN12C renal,14.6 nM
same,TGI,SN12C renal,> 77.6 µM
same,GI50,SNB-19 CNS,17.8 nM
same,TGI,SNB-19 CNS,> 100 µM
same,GI50,SNB-75 CNS,< 10 nM
same,TGI,SNB-75 CNS,24.1 µM
same,GI50,SR leukemia,< 10 nM
same,GI50,SW-620 colon,< 10 nM
same,TGI,SW-620 colon,> 70.8 µM
same,GI50,T-47D breast,< 10 nM
same,TGI,T-47D breast,> 100 µM
same,GI50,TK-10 renal,22.2 µM
same,TGI,TK-10 renal,> 92.5 µM
same,GI50,U251 CNS,< 0.01 µM
same,TGI,U251 CNS,> 43.8 µM
same,GI50,UACC-257 melanoma,> 36.9 µM
same,TGI,UACC-257 melanoma,> 100 µM
same,GI50,UACC-62 melanoma,< 10 nM
same,TGI,UACC-62 melanoma,> 81.2 µM
same,GI50,UO-31 renal,38.7 nM
same,TGI,UO-31 renal,> 67.7 µM
CC1(C)COC(c2ccc(CC(Cc3ccc(C4(C(C)(C)C)OCC(C)(C)CO4)cc3)C(=O)O)cc2)(C(C)(C)C)OC1,GI50,A549 NSCLC,2060 nM
same,TGI,A549 NSCLC,> 100 µM
same,GI50,ACHN renal,2800 nM
same,TGI,ACHN renal,> 100 µM
same,GI50,M14 melanoma,> 100 µM
same,TGI,M14 melanoma,> 100000 nM
same,GI50,MALME-3M melanoma,> 100 µM
same,TGI,MALME-3M melanoma,> 100 µM
same,GI50,RXF 393 renal,2860 nM
same,TGI,RXF 393 renal,> 100 µM
same,GI50,SK-MEL-28 melanoma,> 100 µM
same,TGI,SK-MEL-28 melanoma,> 100 µM
same,GI50,SNB-19 CNS,4140 nM
same,TGI,SNB-19 CNS,> 100 µM
same,GI50,U251 CNS,3.03 µM
same,TGI,U251 CNS,> 100 µM
